Test results from ChEMBL document CHEMBL2429864, “Synthesis and antimicrobial evaluation of 1,3,4-oxadiazole-based chalcone derivatives” (2013).
Converted amounts (≈) assume the structure as drawn.

Tests used:
Format in all cases: functional
Staphylococcus aureus = assay: Antibacterial activity against Staphylococcus aureus ATCC 25923 by micro dilution/broth titre method
Escherichia coli = assay: Antibacterial activity against Escherichia coli ATCC 25922 by micro dilution/broth titre method
Pseudomonas aeruginosa = assay: Antibacterial activity against Pseudomonas aeruginosa ATCC 27853 by micro dilution/broth titre method
Candida albicans = assay: Antifungal activity against Candida albicans ATCC 10231
Enterococcus faecalis = assay: Antibacterial activity against Enterococcus faecalis ATCC 29212 by micro dilution/broth titre method
Aspergillus niger = assay: Antifungal activity against Aspergillus niger ATCC 1015

SMILES | MIC (Staphylococcus aureus) | MIC (Escherichia coli) | MIC (Pseudomonas aeruginosa) | MIC (Candida albicans) | MIC (Enterococcus faecalis) | MIC (Aspergillus niger)
O=C(CSc1nnc(-c2cccc([N+](=O)[O-])c2)o1)Nc1ccc(C(=O)/C=C\c2ccccc2)cc1 | 31.2 µg/mL (≈ 64.2 µM) | 31.2 µg/mL (≈ 64.2 µM) | 62.5 µg/mL (≈ 128 µM) | 250 µg/mL (≈ 514 µM) | 31.2 µg/mL (≈ 64.2 µM) | 125 µg/mL (≈ 257 µM)
OC(Cn1cncn1)(Cn1cncn1)c1ccc(F)cc1F [FLUCONAZOLE] |  |  |  | 125 µg/mL (≈ 408 µM) |  | 62.5 µg/mL (≈ 204 µM)
COc1ccc(/C=C\C(=O)c2ccc(NC(=O)CSc3nnc(-c4cccc([N+](=O)[O-])c4)o3)cc2)cc1OC | 62.5 µg/mL (≈ 114 µM) | 62.5 µg/mL (≈ 114 µM) | 62.5 µg/mL (≈ 114 µM) | 500 µg/mL (≈ 915 µM) | 31.2 µg/mL (≈ 57.2 µM) | 500 µg/mL (≈ 915 µM)
COc1ccc(OC)c(/C=C\C(=O)c2ccc(NC(=O)CSc3nnc(-c4cccc([N+](=O)[O-])c4)o3)cc2)c1 | 62.5 µg/mL (≈ 114 µM) | 62.5 µg/mL (≈ 114 µM) | 62.5 µg/mL (≈ 114 µM) | 125 µg/mL (≈ 229 µM) | 125 µg/mL (≈ 229 µM) | 125 µg/mL (≈ 229 µM)
O=C(CSc1nnc(-c2cccc([N+](=O)[O-])c2)o1)Nc1ccc(C(=O)/C=C\c2ccc(Br)cc2)cc1 | 62.5 µg/mL (≈ 111 µM) | 62.5 µg/mL (≈ 111 µM) | 62.5 µg/mL (≈ 111 µM) | 250 µg/mL (≈ 442 µM) | 62.5 µg/mL (≈ 111 µM) | 250 µg/mL (≈ 442 µM)
CN(C)c1ccc(/C=C\C(=O)c2ccc(NC(=O)CSc3nnc(-c4cccc([N+](=O)[O-])c4)o3)cc2)cc1 | 31.2 µg/mL (≈ 59 µM) | 31.2 µg/mL (≈ 59 µM) | 62.5 µg/mL (≈ 118 µM) | 62.5 µg/mL (≈ 118 µM) | 125 µg/mL (≈ 236 µM) | 125 µg/mL (≈ 236 µM)
O=C(O)c1cn(C2CC2)c2cc(N3CCNCC3)c(F)cc2c1=O [CIPROFLOXACIN] | 62.5 µg/mL (≈ 189 µM) | 125 µg/mL (≈ 377 µM) | 125 µg/mL (≈ 377 µM) |  | 125 µg/mL (≈ 377 µM) | 
COc1cc(/C=C\C(=O)c2ccc(NC(=O)CSc3nnc(-c4cccc([N+](=O)[O-])c4)o3)cc2)ccc1O | 62.5 µg/mL (≈ 117 µM) | 31.2 µg/mL (≈ 58.7 µM) | 62.5 µg/mL (≈ 117 µM) | 250 µg/mL (≈ 469 µM) | 62.5 µg/mL (≈ 117 µM) | 250 µg/mL (≈ 469 µM)
O=C(CSc1nnc(-c2cccc([N+](=O)[O-])c2)o1)Nc1ccc(C(=O)/C=C\c2ccc(O)cc2)cc1 | 125 µg/mL (≈ 249 µM) | 31.2 µg/mL (≈ 62.2 µM) | 31.2 µg/mL (≈ 62.2 µM) | 62.5 µg/mL (≈ 124 µM) | 125 µg/mL (≈ 249 µM) | 62.5 µg/mL (≈ 124 µM)
COc1ccc(/C=C\C(=O)c2ccc(NC(=O)CSc3nnc(-c4cccc([N+](=O)[O-])c4)o3)cc2)cc1 | 62.5 µg/mL (≈ 121 µM) | 62.5 µg/mL (≈ 121 µM) | 62.5 µg/mL (≈ 121 µM) | 125 µg/mL (≈ 242 µM) | 125 µg/mL (≈ 242 µM) | 125 µg/mL (≈ 242 µM)
O=C(CSc1nnc(-c2cccc([N+](=O)[O-])c2)o1)Nc1ccc(C(=O)/C=C\c2ccccc2[N+](=O)[O-])cc1 | 125 µg/mL (≈ 235 µM) | 62.5 µg/mL (≈ 118 µM) | 62.5 µg/mL (≈ 118 µM) | 250 µg/mL (≈ 470 µM) | 125 µg/mL (≈ 235 µM) | 250 µg/mL (≈ 470 µM)
O=C(CSc1nnc(-c2cccc([N+](=O)[O-])c2)o1)Nc1ccc(C(=O)/C=C\c2ccc([N+](=O)[O-])cc2)cc1 | 62.5 µg/mL (≈ 118 µM) | 31.2 µg/mL (≈ 58.8 µM) | 62.5 µg/mL (≈ 118 µM) | 250 µg/mL (≈ 470 µM) | 62.5 µg/mL (≈ 118 µM) | 250 µg/mL (≈ 470 µM)
O=C(CSc1nnc(-c2cccc([N+](=O)[O-])c2)o1)Nc1ccc(C(=O)/C=C\c2ccc(Cl)cc2)cc1 | 62.5 µg/mL (≈ 120 µM) | 62.5 µg/mL (≈ 120 µM) | 31.2 µg/mL (≈ 60 µM) | 62.5 µg/mL (≈ 120 µM) | 62.5 µg/mL (≈ 120 µM) | 62.5 µg/mL (≈ 120 µM)
O=C(CSc1nnc(-c2cccc([N+](=O)[O-])c2)o1)Nc1ccc(C(=O)/C=C\c2c(O)ccc3ccccc23)cc1 | 62.5 µg/mL (≈ 113 µM) | 62.5 µg/mL (≈ 113 µM) | 62.5 µg/mL (≈ 113 µM) | 62.5 µg/mL (≈ 113 µM) | 62.5 µg/mL (≈ 113 µM) | 62.5 µg/mL (≈ 113 µM)
O=C(CSc1nnc(-c2cccc([N+](=O)[O-])c2)o1)Nc1ccc(C(=O)/C=C\c2ccccc2O)cc1 | 62.5 µg/mL (≈ 124 µM) | 62.5 µg/mL (≈ 124 µM) | 62.5 µg/mL (≈ 124 µM) | 125 µg/mL (≈ 249 µM) | 125 µg/mL (≈ 249 µM) | 125 µg/mL (≈ 249 µM)
COc1cc(/C=C\C(=O)c2ccc(NC(=O)CSc3nnc(-c4cccc([N+](=O)[O-])c4)o3)cc2)cc(OC)c1OC | 62.5 µg/mL (≈ 108 µM) | 62.5 µg/mL (≈ 108 µM) | 62.5 µg/mL (≈ 108 µM) | 250 µg/mL (≈ 434 µM) | 62.5 µg/mL (≈ 108 µM) | 125 µg/mL (≈ 217 µM)
